This is an account of results in patent US6642222B2, “Pyrano, piperidino, and thiopyrano compounds and methods of use” (Abbott Laboratories, priority 1998, dated 2003).

A word on the melting point: it is the temperature, or range, at which the solid turns liquid. The EC50 is the concentration needed to bring the measured effect to its halfway point.

Series [1] relates to Guinea-Pig Bladder (GPB) Cells. The series is described as follows: Membrane Hyperpolarization (MHP) assay, DiBAC(4)3 / FLIPR. The following applies: for EC50: membrane hyperpolarization, GPB cells; for Emax: read-out: Maximal Response (% P1075), maximal steady-state hyperpolarization, normalized to 10 μM P1075 (100%); for Maximal Response (% P1075): maximal steady-state hyperpolarization, normalized to 10 μM P1075 (100%).

A further series has as its system Landrace Pig Bladder. The series is described as follows: Functional potassium channel opening activity in isolated bladder strips (field-stimulated twitch). The following applies: for Index: ED50 for P1075 divided by ED50 for the test agonist, averaged over tissues; for Efficacy (% P1075): maximal efficacy relative to P1075, field stimulated bladder strips; for pD2: negative logarithm of ED50. The method, boiled down:
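Mucosa-free bladder strips from female Landrace pigs (9-30 kg) under 1.0 g preload in Krebs Ringer bicarbonate with 0.004 mM propranolol, field-stimulated at 0.05 Hz, 0.5 ms, 20 V after KCl priming. Cumulative concentration-response curves gave maximal efficacy as % of reference opener and ED50. Potency index = reference ED50/test ED50 in the same tissue, averaged across tissues.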

Molecules are shown by their SMILES.

The compound `C[C@H]1OCC2=C(C1=O)[C@H](c1ccc(F)c(Br)c1)C1=C(COC1=O)N2` (relative stereo) [Example 85, (cis)-9-(3-bromo-4-fluorophenyl)-7-methyl-5,9-dihydro-3H-furo[3,4-b]pyrano[4,3-e]pyridine-1,8(4H,7H)-dione] showed a melting point of 234 to 239 °C.

As to `C[C@@H]1OCC(=O)C2=C1NC1=C(C(=O)OC1)[C@H]2c1ccc(F)c(Br)c1` (relative stereo) [Example 89, (cis)-9-(3-bromo-4-fluorophenyl)-5-methyl-5,9-dihydro-3H-furo[3,4-b]pyrano[4,3-e]pyridine-1,8(4H,7H)-dione], the melting point lay in the range of 260 to 263 °C.

For `C[C@@H]1OC(=O)C2=C1NC1=C(C(=O)COC1)[C@H]2c1ccc(F)c(Br)c1` (relative stereo) [Example 91, (cis)-9-(3-bromo-4-fluorophenyl)-3-methyl-5,9-dihydro-3H-furo[3,4-b]pyrano[4,3-e]pyridine-1,8(4H,7H)-dione], the melting point lay within 213 to 216 °C.

For `C[C@@H]1OC(=O)C2=C1NC1=C(C(=O)COC1)[C@H]2c1ccc(F)c(Br)c1` (relative stereo) [Example 100, (cis)-9-(3-bromo-4-fluorophenyl)-3-methyl-5,9-dihydro-3H-furo[3,4-b]pyrano[4,3-e]pyridine-1,8(4H,7H)-dione], the melting point lay in the range of 230 to 233 °C.

For the compound `CCC1OC(=O)C2=C1NC1=C(C(=O)COC1)C2c1ccc(F)c(Br)c1` (single isomer, unassigned) [Example 95, 9-(3-bromo-4-fluorophenyl)-3-ethyl-5,9-dihydro-3H-furo[3,4-b]pyrano[4,3-e]pyridine-1,8(4H,7H)-dione], the melting point was in the range of 161 to 162 °C.

In the case of `CCC1OC(=O)C2=C1NC1=C(C(=O)COC1)C2c1ccc(F)c(Br)c1` (single isomer, unassigned) [Example 96, 9-(3-bromo-4-fluorophenyl)-3-ethyl-5,9-dihydro-3H-furo[3,4-b]pyrano[4,3-e]pyridine-1,8(4H,7H)-dione], the melting point is 246 to 248 °C.

The compound `CCCC1OC(=O)C2=C1NC1=C(C(=O)COC1)C2c1ccc(F)c(Br)c1` (single isomer, unassigned) [Example 97, 9-(3-bromo-4-fluorophenyl)-3-propyl-5,9-dihydro-3H-furo[3,4-b]pyrano[4,3-e]pyridine-1,8(4H,7H)-dione] had a melting point of 206 to 208 °C.

`CCCC1OC(=O)C2=C1NC1=C(C(=O)COC1)C2c1ccc(F)c(Br)c1` (single isomer, unassigned) [Example 98, 9-(3-bromo-4-fluorophenyl)-3-propyl-5,9-dihydro-3H-furo[3,4-b]pyrano[4,3-e]pyridine-1,8(4H,7H)-dione] showed a melting point of 219 to 220 °C.

For `CN1CC(=O)C2=C(C1)NC1=C(C(=O)CCC1)C2c1ccc(F)c(Br)c1.Cl` (stereo not shown) [Example 3, 5-(3-bromo-4-fluorophenyl)-2-methyl-2,3,5,8,9,10-hexahydrobenzo[b][1,7]naphthyridine-4,6(1H, 7H)-dione Hydrochloride], the melting point is 248 to 250 °C. In addition, in series [1] (Cavia porcellus), the midpoint of the response, the EC50, lay at 27000 nM and the Emax was determined as 41%.

In turn, `O=C1COCC2=C1C(c1ccc(F)c(Br)c1)C1=C(CNC1=O)N2` (stereo not shown) [Example 27, 9-(3-bromo-4-fluorophenyl)-2,3,5,9-tetrahydropyrano[3,4-b]pyrrolo[3,4-e]pyridine-1,8(4H,7H)-dione] displayed a melting point of more than 260 °C. In addition, in series [1] (Cavia porcellus), a half-maximal response (EC50) required 970 nM and the Emax came out at 87%.

In turn, `CC1(C)CCC2=C(C1=O)C(c1ccc(F)c(Br)c1)C1=C(COCC1=O)N2` (stereo not shown) [Example 41, 5-(3-bromo-4-fluorophenyl)-7,7-dimethyl-5,8,9,10-tetrahydro-1H-pyrano[3,4-b]quinoline-4,6(3H,7H)-dione] yielded a melting point of more than 260 °C. Moreover, in series [1] (Cavia porcellus), it took 71 nM to reach a half-maximal effect (EC50) and the Emax was determined as 66%.

Turning to `O=C1COCC2=C1C(c1ccc(Br)c(Br)c1)C1=C(COCC1=O)N2` [Example 55, 5-(3,4-dibromonhenyl)-5,10-dihydro-1H,3H-dipyrano [3,4-b:4,3-e]pyridine-4,6(7H,9H)-dione], in the series on Landrace Pig Bladder, the Index was found to be 0.35, the “Efficacy (% P1075)” value came to 80 % P1075 and the pD2 is recorded as 6.2. Further, in series [1], the “Maximal Response (% P1075)” value was 108 % P1075 and a half-maximal effect (EC50) was put at 3.9 nM.

Turning to `O=C1COCC2=C1C(c1ccc(F)c(-c3ccco3)c1)C1=C(COCC1=O)N2` [Example 57, 5-[4-fluoro-3-(2-furyl)phenyl]-5,10-dihydro-1H,3H-dipyrano[3,4-b:4,3-e]pyridine-4,6(7H,9H)-dione], in the series on Landrace Pig Bladder, the Index is reported as 0.090, the “Efficacy (% P1075)” value turned out to be 45 % P1075 and the pD2 was found to be 5.6. Further, in series [1], the “Maximal Response (% P1075)” value was found to be 69 % P1075 and the response was half-maximal at 4000 nM (EC50).

As for `O=C1COCC2=C1C(c1cc(Br)c(F)cc1O)C1=C(COCC1=O)N2` [Example 58, 5-(5-bromo-4-fluoro-2-hydroxyphenyl)-5,10-dihydro-1H,3H-dipyrano[3,4-b:4,3-e]pyridine-4,6(7H,9H)-dione], in the series on Landrace Pig Bladder, the Index was determined as 0.19, the “Efficacy (% P1075)” value is 84 % P1075 and the pD2 was found to be 6.2. In addition, in series [1], the “Maximal Response (% P1075)” value is reported as 94 % P1075 and a half-maximal response (EC50) required 46 nM.

For the compound `Cc1ccc(C2C3=C(COCC3=O)NC3=C2C(=O)COC3)cc1[N+](=O)[O-]` [Example 59, 5-(4-methyl-3-nitrophenyl)-5,10-dihydro-1H,3H-dipyrano[3,4-b:4,3-e]pyridine-4,6(7H,9H)-dione], in the series on Landrace Pig Bladder, the Index came out at 0.17, the “Efficacy (% P1075)” value was found to be 73 % P1075 and the pD2 is 5.9. Besides, in series [1], the “Maximal Response (% P1075)” value was found to be 94 % P1075 and the concentration giving a half-maximal response (EC50) is 99 nM.

Consider `C=C(C)c1cc(C2C3=C(COCC3=O)NC3=C2C(=O)COC3)ccc1F` [Example 64, 5-(4-fluoro-3-isopropenylphenyl)-5,10-dihydro-1H,3H-dipyrano[3,4-b:4,3-e]pyridine-4,6(7H,9H)-dione], for which, in the series with Landrace Pig Bladder, the Index came out at 0.031, the “Efficacy (% P1075)” value worked out at 95 % P1075 and the pD2 is given as 5.5. Also, in series [1], the “Maximal Response (% P1075)” value is 84 % P1075 and the EC50 turned out to be 250 nM.

Regarding `CC1(C)OC(=O)C2=C1NC1=C(C(=O)COC1)C2c1ccc(F)c(Br)c1` (stereo not shown) [Example 99, 9-(3-bromo-4-fluorophenyl)-3,3-dimethyl-5,9-dihydro-3H-furo[3,4-b]pyrano[4,3-e]pyridine-1,8(4H,7H)-dione], the melting point is more than 260 °C.
